Results on 2 compounds are retold here after PMC5980705 (Pediatric blood & cancer, 2018).

For data set [1] the following is noted: in the combination of dasatinib and crizotinib, administered once daily, children.
The conditions of data set [2]: cited from earlier work.
Data set [3] can be described thus: Pharmacokinetic studies of crizotinib and dasatinib in patients. In kind it is in vivo, human.
For data set [4], the system named is BCRP. The settings on record: cited from earlier work.
Data set [5] deals with ERK (p-ERK/total ERK) in peripheral-blood mononuclear cells. As to the kind of experiment: Total and phosphorylated ERK in PBMC before and 3 hours after dasatinib. In kind it is in vivo, human. The conditions noted are these: after dosing of dasatinib, paired samples.
Data set [6] relates to p-glycoprotein. The settings on record: cited from earlier work.

What is called Tmax is the time from dosing to the highest level. For orientation: half-life means the time in which the quantity being followed falls by half. Low readings indicate rapid decline, high ones slow decline. As for `C[C@@H](Oc1cc(-c2cnn(C3CCNCC3)c2)cnc1N)c1c(Cl)ccc(F)c1Cl` [Crizotinib], in data set [1], the “maximum tolerated dose (MTD)” value was determined as 215 mg/m^2. For the same compound, the CNS penetration entry in data set [2] was “minimal and probably inadequate for the treatment of primary CNS cancers”. Also, the AUC0→t was 5,326.3 (2,068.3 to 12,182.9) ng/mL/hr in data set [3] (dose 215 mg/m^2, day 1, 8 patients, t=∞, median (range)) and 3,118.9 (1,693.8 to 4,278.5) ng/mL/hr in data set [3] (dose 215 mg/m^2, day 14, 4 patients, t=24 hours, median (range)). Also, the Tmax in data set [3] (human, in vivo) was 4.1 h. In addition, the Cmax in data set [3] (human, in vivo, 165 mg/m2) is 155.5 (55.8 to 324.4) ng/mL; in data set [3] (human, in vivo, 165 mg/m2, Cmax) it was 156 ng/mL. The half-life in data set [3] (human, in vivo, elimination half-life, crizotinib day 1 of therapy, 25 patients, median, range 9.8 to 34.7) was 13.1 h; in data set [3] (human, in vivo, elimination half-life, crizotinib day 14 of therapy, 19 patients, median, range 8.0 to 36.5) it was 12.8 h.
On to `Cc1nc(Nc2ncc(C(=O)Nc3c(C)cccc3Cl)s2)cc(N2CCN(CCO)CC2)n1` [Dasatinib], for which the “substrate of BCRP” value in data set [4] was “substrate of p-glycoprotein and BCRP”. The “change in ratio of p-ERK/total ERK in PBMC” value in data set [5] was “No statistically significant changes”. For the same compound, the “maximum tolerated dose (MTD)” value in data set [1] came to 50 mg/m^2. Further, the substrate of p-glycoprotein entry in data set [6] is “substrate of p-glycoprotein”. Further, the CNS penetration entry in data set [2] is on record as “more limited than initially recognized”. Moreover, in data set [3] (human, in vivo), the Tmax is 2.1 h and the half-life was 4.4 h. For the same compound, in data set [3] (human, in vivo, 50 mg/m2), the AUC0→t is 593.8 (388.1 to 1,521.1) ng/mL/hr and the Cmax was found to be 120 ng/mL. For the same compound, in data set [3] (human, in vivo, 65 mg/m2), the AUC0→t was 863.9 (721.9 to 1,006) ng/mL/hr and the Cmax is 210 ng/mL. Moreover, in data set [3] (human, in vivo, po), the apparent oral clearance is 1,328 mL/min/m^2.
